{"source": "the OPERA property sets (Mansouri et al. 2018)", "data": [{"values": [{"smiles": "Cc1cc(=O)c(O)c(C)o1", "logP": 0.44}, {"smiles": "NCCn1ccc(=O)c(O)c1", "logP": -0.66}, {"smiles": "CCc1oc(C)cc(=O)c1O", "logP": 1.07}, {"smiles": "CCCCOCc1cc(=O)c(O)co1", "logP": 0.78}, {"smiles": "CCCn1cccc(O)c1=O", "logP": 0.69}, {"smiles": "CCn1cccc(O)c1=O", "logP": 0.2}, {"smiles": "CCOCc1cc(=O)c(O)co1", "logP": -0.38}, {"smiles": "O=c1ccocc1O", "logP": -0.92}, {"smiles": "CCc1occc(=O)c1O", "logP": 0.63}, {"smiles": "CCCOCc1cc(=O)c(O)co1", "logP": 0.3}, {"smiles": "Cc1cc(=O)c(O)co1", "logP": -0.59}, {"smiles": "COCc1cc(=O)c(O)co1", "logP": -0.62}]}]}
